Tests used:
[1] = tested on: patients with moderate to severe COPD; assay: Clinical study of nebulised ensifentrine 3 mg BID vs placebo, lung function (FEV1) in COPD; type: in vivo, human; settings: 3 mg BID by nebuliser
Description: A clinical study was conducted to determine the efficacy of ensifentrine in treating COPD compared with placebo. Ensifentrine was administered by nebuliser at a dose of 3 mg twice daily (BID) for 24 weeks. The study was a multi-centre, randomized, double-blind, parallel-group, placebo-controlled trial with around 800 patients and 5:3 randomization.
The study population included patients aged 40-80 years with moderate to severe COPD (FEV1 30%-70% p.n., FEV1/forced vital capacity (FVC) ratio <0.7, with mMRC 2). The randomization stratified (a) the use of stable background maintenance LAMA or LABA therapy use (approx. 50%. yes or no) and (b) cigarette smoking (current or former). Inhaled corticosteroid (ICS) maintenance therapy was permitted in up to 20% of patients under certain provisions.
The primary endpoint of the study was change from baseline in average FEV1 area under the curve (AUC)0-12 h post-dose at week 12. Secondary endpoints of the study included: peak FEV1 over 4 hours post-dose at Week 12; morning trough FEV1 at Week 12; and other endpoints including moderate/severe COPD exacerbations frequency over 24 Weeks.
Baseline FEV1 is the mean of the two measurements taken before study medication on the day of first dosing, i.e. <40 minutes and just prior to dosing, both pre-dose on day 1.
Average FEV1 AUC0-12 h is defined as area under the curve over 12 hours of the FEV1, divided by 12 hours.
The investigational product and placebo were provided in 2.5 mL unit dose format in an ampule and administered via a nebuliser. The formulation of the investigational product (ensifentrine suspension formulation comprising crystalline polymorph Form I of ensifentrine) and placebo are shown in Table 1 below.

[2] = Plasma pharmacokinetics of ensifentrine in COPD patients, popPK model simulation from trial samples; type: in vivo, human
Description: Plasma concentrations of ensifentrine for the assessment of pharmacokinetic (PK) parameters were measured using validated bioanalytical methods for ensifentrine in human plasma with LLOQ of 5 pg/mL.
Samples were taken on the following schedule: • Week 6: 1.0 h (±0.5 h) and 2.5 h (±0.5 h) (even sites) or 1.5 h and 4 h (±1 h) (odd sites); • Week 12: pre-dose (−0.5 h), 4 to 6 h, and 8 to 12 h (even sites) or 0.5 h (±0.25 h), 3 h (±0.5 h), and 6 to 8 h (odd sites); • Week 24: pre-dose (−0.5 h) and 1.5 h (even sites) or pre-dose (−0.5 h) and 1 h (±0.5 h) (odd sites)
Based on the samples taken during the trial, PK data was modelled for COPD patients with normal renal function. The final popPK model was used to predict parameter estimates in a virtual population of 50000 subjects (per covariate condition) for simulation of ensifentrine PK following nebulization of 3 mg in a population reflecting the population in the trial with normal renal function or mild renal impairment, or with moderate renal impairment. Uncertainty in fixed effects and covariance matrix parameters as well as residual variability were included in the simulations. The parameter uncertainty was accounted for by random resampling (without replacement) of 500 sets of parameter estimates from the bootstrap (750 replicates) in R to create 500 NONMEM simulation control streams. From each set of parameter estimates, the PK profiles for 100 subjects (for each covariate condition) were simulated with IV and IOV from the covariance matrix and residual error in NONMEM. Individual subject concentrations were simulated using NONMEM version 7.4.3, and PK parameters were calculated using R version 3.4.0.

[3] = Plasma pharmacokinetics of ensifentrine after administration of the composition to healthy patients; type: in vivo; settings: human, inhaled
[4] = human, plasma, inhaled, 3 mg, patients with COPD
[5] = nebulization of 3 mg, COPD patients with normal renal function, popPK simulation in virtual population

systemic exposure in COPD patients compared with healthy patients ([2]; COPD patients vs healthy patients): lower systemic exposure | AUC [2, 4]: 2.45 ng·h/mL | Cmax [2, 4]: 0.522 ng/mL | AUC0-tau, Median (90% prediction interval) [2, 5]: 2450 (882-7500) pg/mL * h | Cmax, Median (90% prediction interval) [2, 5]: 522 (173-1330) pg/mL | tmax, Median [2, 5]: 1.0 h | Cmax [3]: 0.852 ng/mL | AUC(0-inf) ([3]; read-out: mean AUC0-∞): 5.93 ng·h/mL
SMILES: COc1cc2c(cc1OC)-c1c/c(=N\c3c(C)cc(C)cc3C)n(CCNC(N)=O)c(=O)n1CC2 [Ensifentrine, N-(2-{(2E)-9,10-dimethoxy-4-oxo-2-[(2,4,6-trimethylphenyl)imino]-6,7-dihydro-2H-pyrimido[6,1-a]isoquinolin-3(4H)-yl}ethyl)urea]
primary endpoint of average FEV1 (AUC)0-12 h at Week 12 ([1]; Week 12): met | Average FEV1 (AUC)0-12 h post-dose at Week 12: Change from Baseline (CFB) Least Squares Mean ([1]; Week 12, n = 498, COPD patients): 48.2 mL | Average FEV1 (AUC)0-12 h post-dose at Week 12: Placebo-corrected CFB LS Mean Diff. ([1]; Week 12, vs placebo (n = 291)): 93.9 mL | improvement in lung function in subgroups of COPD patients ([1]; all subgroups): improvement in lung function with ensifentrine that was statistically significant

Reference: patent publication US20240165023A1, “LIQUID PHARMACEUTICAL COMPOSITION” (Verona Pharma PLC, priority 2022, published 2024)
